Values quoted from earlier work, collected in patent publication US20100029602A1, “LOW-DOSE MOMETASONE FORMULATIONS” (Perrigo Israel Pharmaceuticals Ltd., priority 2007, published 2010).

solubility in ethyl alcohol (ethyl alcohol): moderately soluble | solubility in octanol (octanol): slightly soluble | solubility in water (water): practically insoluble
Compound: C[C@@H]1C[C@H]2[C@@H]3CCC4=CC(=O)C=C[C@]4(C)[C@@]3(Cl)[C@@H](O)C[C@]2(C)[C@@]1(OC(=O)c1ccco1)C(=O)CCl [Mometasone furoate]
